This note sets out measurements from PubChem BioAssay (NCI).

“And” between values parts separate entries of the source, which are not always exact repeats. Identical values can stand only once.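 Protocol summary: plate cells (96-well), add compound at 5 concentrations, incubate 48 h, interpolate endpoints linearly. Here, GI50 denotes the concentration required for 50% inhibition of growth. Definition used: TGI = concentration required for complete inhibition of growth.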

Assay in all cases: NCI-60 cell line screen, 48 h
Test [1] deals with 786-0 renal.
Test [2] concerns COLO 205 colon.
For test [3], the system named is DU-145 prostate.
The test system of test [4] is HCC-2998 colon.
Test [5] deals with HCT-116 colon.
Test [6] relates to HOP-62 NSCLC.
Test [7] relates to LOX IMVI melanoma.
Test [8] deals with NCI-H460 lung.
Test [9] has as its system SNB-75 CNS.
Test [10] relates to UACC-62 melanoma.

As to `N#CCNC(=O)c1ccc(-c2ccnc(Nc3ccc(N4CCOCC4)cc3)n2)cc1`, the GI50 in test [1] was 1.56 µM and 1.26 µM; in test [2], 3.17 µM and 2.96 µM; in test [3], 2.62 µM and 1.65 µM; in test [4], > 10 µM and 3.98 µM; in [5], 1.49 µM and 1.19 µM; in test [6], 1.88 µM and 2.12 µM. The GI50 in [7] was 1.74 µM and 1.35 µM; in test [8], 2.5 µM and 1.36 µM; in test [9], 0.621 µM and 0.186 µM; in test [10], 4.44 µM and 3.66 µM. Moreover, the TGI in [1] was > 10 µM and 13.1 µM; in test [2] it was more than 31.5 µM; in [3], more than 100 µM; in test [4] it was > 10 µM and 47.4 µM; in test [5] it was more than 24.8 µM; in test [6], > 10 µM and 16.4 µM. The TGI in test [7] is more than 44.9 µM; in [8], > 10 µM and 11.3 µM; in test [9], 5.6 µM and 4.17 µM; in test [10], more than 57.8 µM.

Take `COc1ccc2c(c1)C(=O)c1c-2c(=O)n(CCCN(C)C)c2cc(OC)c(OC)cc12`: the GI50 in test [1] is 6.93 µM; in test [2], 12.6 µM; in test [3], 0.623 µM; in test [4], 14.1 µM; in [5] it was 4.53 µM; in [6], 0.682 µM. Moreover, the GI50 in test [7] was 1.6 µM; in test [8] it was 0.273 µM; in test [9] it was 10.1 µM; in test [10], more than 100 µM. For the same compound, the TGI in test [1] is 20.5 µM; in test [2], 25.3 µM; in test [3], 10.9 µM; in [4], 27.3 µM; in test [5] it was 21.4 µM; in test [6] it was more than 100 µM. The TGI was 15.6 µM in [7], 11.4 µM in [8], 23 µM in test [9] and more than 100 µM in test [10].

`c1ccc2c(CNCCN3CCNCC3)c3ccccc3c(CNCCN3CCNCC3)c2c1`: the GI50 is 2.26 µM in [1]; 13.8 µM in [2]; 7.26 µM in [3]; 12.7 µM in test [4]; 13.3 µM in test [5]; 11.9 µM in test [6]. For the same compound, the GI50 in [7] is 12.9 µM; in test [8] it was 25 µM; in test [9], 58.4 µM; in test [10] it was 21.1 µM. For the same compound, the TGI in test [1] was 23.4 µM; in [2], more than 100 µM; in test [3], 33.2 µM; in [4], 29.4 µM; in test [5], 29.5 µM; in [6], 36.1 µM. The TGI in [7] is 29.5 µM; in test [8] it was 98.3 µM; in [9] it was more than 100 µM; in [10], 44 µM.

Consider `COc1ccc(OC)c(Cc2cnc3nc(N)nc(N)c3c2C)c1`, for which the TGI in test [1] is 30.2 µM; in test [2], more than 52.6 µM; in test [3] it was more than 59.8 µM; in [4], 16.4 µM; in test [5], 30.4 µM; in [6], 17.3 µM. Moreover, the TGI was 25.6 µM in test [7], 12.2 µM in [8], 21.3 µM in test [9] and more than 71.2 µM in test [10].

For the compound `O=C(c1cc(Cc2n[nH]c(=O)c3ccccc23)ccc1F)N1CCN(C(=O)C2CC2)CC1`, the GI50 in test [1] was more than 100 µM; in test [2], more than 100 µM; in test [3], 33.5 µM and > 100 µM; in test [4] it was 53.5 µM and > 100 µM; in test [5], > 100 µM and 99.1 µM; in [6] it was 43.2 µM. Further, the GI50 in test [7] was 18.9 µM and 66.3 µM; in test [8] it was 9.25 µM and 9.96 µM; in test [9] it was 14.9 µM and 18 µM; in [10], 67.9 µM and 76.2 µM. Moreover, the TGI in [1], in test [2], in test [3], in test [4], in test [5] and in test [6] was more than 100 µM each time. Also, the TGI in test [7], in test [8], in [9] and in [10] was more than 100 µM in each case.

Regarding `CC(=O)N(O)c1ccc(/C=C/c2ccccc2)cc1`, the GI50 in test [1] was 0.768 µM; in [2] it was 3.34 µM; in test [3], 0.278 µM; in test [4] it was 1.65 µM; in test [5], 1.12 µM; in test [6], 1.98 µM. Besides, the GI50 in test [7] is 1.48 µM; in [8] it was 0.247 µM; in test [9] it was 0.883 µM; in [10], 1.46 µM. For the same compound, the TGI in test [1] is 3.46 µM; in test [2], 44 µM; in test [3], 2.52 µM; in test [4], 3.76 µM; in [5] it was 13.4 µM; in test [6], more than 35.7 µM. Also, the TGI in [7] was 14.6 µM; in test [8], 8.39 µM; in test [9] it was 4.59 µM; in [10], 4.69 µM.

For the compound `CC(C)(C)c1cc(C(=O)O)c2c(c1)C(=O)OC2(c1ccccc1)c1ccccc1C(=O)O` (stereo unspecified), the TGI in test [1], in test [2], in [3], in test [4], in test [5] and in test [6] was more than 100 µM throughout. In addition, the TGI in test [7], in [8], in test [9] and in test [10] was more than 100 µM in each case. Also, in [3], the GI50 is more than 100 µM.

`Fc1ccc2nc(-c3nc(-c4ccccc4)n4ccccc34)[nH]c2c1`: the GI50 in test [1] was 2.23 µM; in test [2], 3.42 µM; in test [3], 5.56 µM; in test [4] it was 4.11 µM; in test [5], 2 µM; in test [6], 1.94 µM. Besides, the GI50 is 4.86 µM in [7], 2.07 µM in [8], 2.09 µM in test [9] and 1.96 µM in test [10]. Besides, the TGI in [1] was found to be 4.23 µM; in test [2], 13.1 µM; in [3] it was 18.1 µM; in test [4], 16.9 µM; in [5], 3.82 µM; in test [6], 3.84 µM. In addition, the TGI worked out at 20.2 µM in test [7], 5.2 µM in [8], 6.87 µM in test [9] and 4.96 µM in test [10].
